Patent US20120252721A1 (priority 2011, published 2012)

Columns and labels:
[1] = test system: HCV genotype 1b Con1 strain subgenomic luciferase replicon (Zluc); experiment: Luciferase replicon assay, genotype 1b; assay type: cell-based; conditions: Hepatitis C virus
Procedure: (§1) The HCV luciferase replicon assay measures the ability of a test compound to inhibit HCV replication in cell culture after 3 days of treatment in a human hepatoma cell line (Huh-7) bearing an HCV replicon containing a luciferase-neomycin phosphotransferase fusion gene. The inhibition of HCV replication was measured by quantification of luciferase protein expression. Briefly, Huh-7 cells containing either the HCV genotype 1a H77 strain or genotype 1b Con1 strain subgenomic luciferase replicon (H1a-luc or Zluc, respectively) were grown in DMEM containing glucose, L-glutamine and sodium pyruvate, 10% fetal bovine serum (FBS), 100 IU/mL penicillin, 100 μg/mL streptomycin, 2 mM GlutaMAX, non-essential amino acids and 0.25 (H1a-luc) or 0.5 (Zluc) mg/mL G418. GlutaMAX was obtained from Invitrogen, Corp.; all other media reagents were obtained from Mediatech, Inc. For dose-response testing, the cells were seeded in 96-well plates at 1×10^4 (H1a-luc) or 7.5×10^3 (Zluc) cells/well in a volume of 50 μL, and incubated at 37° C./5% CO2. Three hours after plating, 50 μL of ten 5-fold serial dilutions of compound were added, and cell cultures were incubated at 37° C./5% CO2 for 72 hours. In all cases, Huh-7 cells lacking the HCV replicon served as negative control. To assess luciferase expression, the media/compound was removed from the plates and ONE-glo Luciferase assay reagent (Promega) was added to each well. The assay plates were shaken for 3 minutes at room temperature and luciferase activity for each well was measured with a 1 sec read time on the Victor^3V multilabel counter using a 700 nm cut-off filter (Perkin Elmer). EC50 values were calculated from dose response curves from the resulting best-fit equations determined by Microsoft Excel and XLfit 4.1 software.

[2] = test system: HCV genotype 1a H77 strain subgenomic luciferase replicon (H1a-luc); experiment: Luciferase replicon assay, genotype 1a; assay type: cell-based; conditions: Hepatitis C virus, read-out: EC50 1a
Procedure: Drug titration analysis was performed using the luciferase replicon assay described herein.
as §1

H1a-luc or Zluc cells = experiment: in vitro; assay type: cell-based, human; conditions: Table 1B, cellular viability
Procedure: (§2) For cytotoxicity evaluation, HPC cells were treated with compounds as described above in the absence of the genotype 2a virus and cellular viability was monitored using the Cell Titer 96 AQueous One Solution Cell Proliferation Assay (Promega). Plates were then read at 490 nm in a Victor^3V 1420 multilabel counter (Perkin Elmer) and CC50 concentrations were determined using Microsoft Excel and XLfit 4.1 software.
as §2, with “H1a-luc or Zluc” for “HPC”, “above” for “above in the absence of the genotype 2a virus”

[3] = test system: HCV Con1 subgenomic replicon (GS4.1 cells); experiment: HCV replicon assay (NS5A ELISA, 72 hrs); assay type: cell-based; conditions: Hepatitis C virus
Procedure: Huh-7 cells containing HCV Con1 subgenomic replicon (GS4.1 cells) were grown in Dulbecco's Modified Eagle Medium (DMEM) supplemented with 10% fetal bovine serum (FBS), 2 mM L-glutamine, 110 mg/L sodium pyruvate, 1× non-essential amino acids, 100 U/mL penicillin-streptomycin, and 0.5 mg/mL G418 (Invitrogen). For dose-response testing, the cells were seeded in 96-well plates at 7.5×10^3 cells/well in a volume of 50 μL, and incubated at 37° C./5% CO2. Three hours after plating, 50 μL often 2-fold serial dilutions of compounds (highest concentration, 75 μM) were added, and cell cultures were incubated at 37° C./5% CO2 in the presence of 0.5% DMSO. Alternatively, compounds were tested at a single concentration of 15 μM. In all cases, Huh-7 cells lacking the HCV replicon served as negative control. The cells were incubated in the presence of compounds for 72 hrs after which they were monitored for expression of the NS5A protein by enzyme-linked immunosorbent assay (ELISA). For this, the plates were then fixed for 1 min with acetone/methanol (1:1, v/v), washed twice with phosphate-buffered saline (PBS), 0.1% Tween 20, blocked for 1 hr at room temperature with TNE buffer containing 10% FBS and then incubated for 2 hr at 37° C. with the anti-NS5A mouse monoclonal antibody A-236 (ViroGen) diluted in the same buffer. After washing three times with PBS, 0.1% Tween 20, the cells were incubated 1 hr at 37° C. with anti-mouse immunoglobulin G-peroxidase conjugate in TNE, 10% FBS. After washing as described above, the reaction was developed with O-phenylenediamine (Zymed). The reaction was stopped after 30 min with 2 NH2SO4, and absorbance was read at 492 nm using Sunrise Tecan spectrophotometer. EC50 values were determined from the % inhibition versus concentration data using a sigmoidal non-linear regression analysis based on four parameters with Tecan Magellan software.

in vitro = assay type: cell-based; conditions: human; GS4.1 cells, cellular viability
Procedure: For cytotoxicity evaluation, GS4.1 cells were treated with compounds as described above and cellular viability was monitored using the Cell Titer 96 AQeous One Solution Cell Proliferation Assay (Promega). CC50 values were determined from the % cytotoxicity versus concentration data with Tecan Magellan software as described above.

SMILES	EC50 [1] [nM]	EC50 [2] [nM]	CC50 (H1a-luc or Zluc cells) [nM]	EC50 [3] [nM]	CC50 (in vitro) [nM]
COC(=O)N[C@H](C(=O)N1CCCC1c1nc(-c2cc3sc(-c4ccc(-c5cnc([C@@H]6CCCN6C(=O)[C@@H](c6ccccc6)N6CCCCC6)[nH]5)cc4)cc3o2)c[nH]1)C(C)C (stereo partly shown) [Compound A212]	< 0.1	< 0.1	10000 to 75000		
COC(=O)N[C@H](C(=O)N1CCC[C@H]1c1nc2ccc(-c3cc4sc(-c5ccc(-c6c[nH]c([C@@H]7CCCN7C(=O)[C@H](NC(=O)OC)c7ccccc7)n6)cc5)cc4s3)cc2[nH]1)C(C)C [Compound A215, [(S)-1-((S)-2-{6-[5-(4-{(S)-2-[1-((R)-2-methoxycarbonylamino-2-phenyl-acetyl)-pyrrolidin-2-yl]-1H-imidazol-4-yl}-phenyl)-thieno[3,2-b]thiophen-2-yl)-1H-benzoimidazol-2-yl}-pyrrolidine-1-carbonyl)-2-methyl-propyl]-carbamic acid methyl ester]	< 0.1	< 0.1	> 75000		
COC(=O)N[C@H](C(=O)N1CCCC1c1ncc(-c2cc3sc(-c4ncc(-c5c[nH]c([C@@H]6CCCN6C(=O)[C@@H](NC(=O)OC)C(C)C)n5)s4)cc3s2)[nH]1)C(C)C (stereo partly shown) [Compound A130]				< 1	> 75000
CC(C)(C)OC(=O)N1CCCC1c1ncc(-c2cn3cc(-c4ccc(Cl)cc4)sc3n2)[nH]1 (stereo not shown) [Compound A152]				> 100	10000 to 75000
COC(=O)N[C@H](C(=O)N1CCC[C@H]1c1ncc(-c2ccc(-c3csc4c(-c5cnc([C@@H]6CCCN6C(=O)[C@H](NC(=O)OC)c6ccccc6)[nH]5)csc34)cc2)[nH]1)C(C)C [Compound A200, [(S)-1-((S)-2-{4-[4-(6-{2-[(S)-1-((R)-2-methoxycarbonylamino-2-phenyl-acetyl)-pyrrolidin-2-yl]-3H-imidazol-4-yl}-thieno[3,2-b]thiophen-3-yl)-phenyl]-1H-imidazol-2-yl}-pyrrolidine-1-carbonyl)-2-methyl-propyl]-carbamic acid methyl ester]	< 0.1	0.1 to 1	> 75000		
CC(C)(C)OC(=O)Nc1ccc(-c2cn3cc(NC(=O)[C@@H]4CCCN4C(=O)[C@H](NC(=O)OC(C)(C)C)c4ccccc4)nc3s2)cc1 [Compound A29]				> 100	10000 to 75000
COC(=O)N[C@H](C(=O)N1CCC[C@H]1C(=O)Nc1ccc(-c2cn3cc(NC(=O)OC(C)(C)C)nc3s2)cc1)C(C)C [Compound A34]				1 to 10	10000 to 75000
COC(=O)N[C@H](C(=O)N1CCC[C@H]1c1ncc(-c2ccc(-c3cn4cc(NC(=O)[C@@H]5CCCN5)nc4s3)cc2)[nH]1)C(C)C [Compound A150]				10 to 100	10000 to 75000
CCOC(=O)N[C@@H](C(=O)N1CCC[C@H]1C(=O)Nc1cn2cc(-c3ccc(-c4cnc([C@@H]5CCCN5C(=O)[C@@H](NC(=O)OC)C(C)C)[nH]4)cc3)sc2n1)c1ccccc1 [Compound A55, (S,S,S,R)-[1-(2-{5-[4-(6-{[1-(2-ethoxycarbonylamino-2-phenylacetyl)-pyrrolidine-2-carbonyl]-amino}imidazo[2,1-b]thiazol-2-yl)-phenyl]-1H-imidazol-2-yl}pyrrolidine-1-carbonyl)-2-methyl-propyl]-carbamic acid methyl ester]				< 1	10000 to 75000
CC(C)(C)OC(=O)N[C@@H](C(=O)N1CCOC[C@H]1C(=O)Nc1cn2cc(-c3ccccc3)sc2n1)c1ccccc1 [Compound A22]				> 100	> 75000
COC(=O)N[C@@H](C(=O)N1CCC[C@H]1C(=O)Nc1ccc(-c2cn3cc(NC(=O)[C@@H]4CCCN4C(=O)[C@H](NC(=O)OC)c4ccccc4)nc3s2)cc1)c1ccccc1 [Compound A79]				< 1	> 75000
COC(=O)N[C@H](C(=O)N1CCCC1c1ncc(-c2ccc(-c3cn4c(-c5ccccc5)csc4n3)cc2)[nH]1)C(C)C (stereo partly shown) [Compound A162]				1 to 10	10000 to 75000
COC(=O)N[C@H](C(=O)N1CCCC1c1ncc(-c2ccc(-c3csc4c(-c5ccccc5)csc34)cc2)[nH]1)C(C)C (stereo partly shown) [Compound A103]				1 to 10	10000 to 75000
CC(C)(C)OC(=O)N1CCC[C@H]1c1ncc(-c2ccc(-c3cn4c(-c5ccccc5)csc4n3)cc2)[nH]1 [Compound A158]				> 100	10000 to 75000
COC(=O)N[C@H](C(=O)N1CCC[C@H]1c1ncc(-c2ccc(-c3csc4c(Br)csc34)cc2)[nH]1)C(C)C [Compound A155, [(S)-1-((S)-2-{4-[4-(6-bromo-thieno[3,2-b]thiophen-3-yl)-phenyl]-1H-imidazol-2-yl}-pyrrolidine-1-carbonyl)-2-methyl-propyl]-carbamic acid methyl ester]				10 to 100	10000 to 75000
CC(C)(C)OC(=O)N[C@@H](C(=O)N1CCC[C@H]1C(=O)Nc1cn2cc(-c3ccccc3)sc2n1)c1ccccc1 [Compound A27]				10 to 100	> 75000
CC(C)(C)OC(=O)N[C@@H](C(=O)N1CCC[C@H]1C(=O)Nc1cn2cc(C#Cc3ccccc3)sc2n1)c1ccccc1 [Compound A23]				> 100	10000 to 75000
COC(=O)N[C@H](C(=O)N1CCC[C@H]1c1ncc(-c2ccc(-c3cn4cc(NC(=O)C5CCCN5C(=O)CNC(=O)OC(C)(C)C)nc4s3)cc2)[nH]1)C(C)C (stereo partly shown) [Compound A31]				10 to 100	> 75000
COC(=O)N[C@H](C(=O)N1CCCC1c1ncc(-c2ccc(-c3cn4ccsc4n3)cc2)[nH]1)C(C)C (stereo partly shown) [Compound A160]				10 to 100	> 75000
COC(=O)N[C@H](C(=O)N1CCCC1c1ncc(-c2ccc(-c3csc4c(-c5cnc(C6CCCN6C(=O)OC(C)(C)C)[nH]5)csc34)cc2)[nH]1)C(C)C (stereo partly shown) [Compound A151]				< 1	10000 to 75000
COC(=O)N[C@H](C(=O)N1CCCC1c1ncc(-c2cc3sc(-c4ccc(-c5cnc([C@@H]6CCCN6C(=O)[C@H](NC(=O)OC)c6ccccc6)[nH]5)cc4)cc3s2)[nH]1)C(C)C (stereo partly shown) [Compound A217]	< 0.1	< 0.1	> 75000		
COC(=O)N[C@H](C(=O)N1CCCC1c1ncc(-c2ccc(-n3ccc4c(-c5cnc(C6CCCN6C(=O)[C@@H](NC(=O)OC)C(C)C)[nH]5)csc43)c(Cl)c2)[nH]1)C(C)C (stereo partly shown) [Compound A213]	< 0.1	0.1 to 1			
COC(=O)N[C@H](C(=O)N1CCCC1c1nc(-c2ccc(-c3sc4cc(-c5ccc(-c6cnc([C@@H]7CCCN7C(=O)[C@@H](NC(=O)OC)C(C)C)[nH]6)cc5)sc4c3-c3ccc(-c4cnc(C5CCCN5C(=O)[C@@H](NC(=O)OC)C(C)C)[nH]4)cc3)cc2)c[nH]1)C(C)C (stereo partly shown) [Compound A105]				10 to 100	10000 to 75000
COC(=O)N[C@H](C(=O)N1CCC[C@H]1C(=O)Nc1ccc(-c2cn3cc(NC(=O)C4CCCN4C(=O)[C@@H](NC(=O)OC)C(C)C)nc3s2)cc1)c1ccccc1 (stereo partly shown) [Compound A32]				< 1	> 75000
